This note sets out measurements from US10023557B2 (LifeSci Pharmaceuticals, Inc., priority 2015, dated 2018).

Some results are limits rather than exact numbers.

In one assay the target is human plasma kallikrein (Homo sapiens (Human), UniProt P03952). Briefly: In vitro enzyme inhibition of human plasma kallikrein (PFR-AMC cleavage). Format: biochemical. As to conditions: Pro-Phe-Arg-AMC substrate, 37° C., read-out: hPK IC50. In outline:
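Human plasma kallikrein and compound, diluted in 50 mM Tris-HCl pH 7.5, 150 mM NaCl, 0.01% Triton X-100, preincubated 5 min at 37 °C before PFR-AMC was added.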

The target of assay [1] is cellular kallikrein activity (Homo sapiens (Human), UniProt P03952). The assay can be described thus: In vitro cellular assay (contact assay): kallikrein activity in ellagic acid-activated human plasma, Z-FR-2-AMC substrate. Format: biochemical. Conditions: human plasma activated with ellagic acid, 37° C. As to the method: The ability of the compounds disclosed herein to inhibit cellular kallikrein activity was quantified and the respective EC50 value was determined.
Chain of cellular kallikrein activity (P03952 391-638): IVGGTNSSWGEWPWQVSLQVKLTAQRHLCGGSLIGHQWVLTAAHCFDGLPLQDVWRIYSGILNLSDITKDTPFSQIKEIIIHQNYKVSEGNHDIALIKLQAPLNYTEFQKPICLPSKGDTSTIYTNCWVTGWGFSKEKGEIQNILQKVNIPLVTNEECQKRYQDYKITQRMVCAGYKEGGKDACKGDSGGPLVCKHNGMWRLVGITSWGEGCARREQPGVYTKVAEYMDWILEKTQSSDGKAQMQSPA
Chain of cellular kallikrein activity (P03952 20-390 partner): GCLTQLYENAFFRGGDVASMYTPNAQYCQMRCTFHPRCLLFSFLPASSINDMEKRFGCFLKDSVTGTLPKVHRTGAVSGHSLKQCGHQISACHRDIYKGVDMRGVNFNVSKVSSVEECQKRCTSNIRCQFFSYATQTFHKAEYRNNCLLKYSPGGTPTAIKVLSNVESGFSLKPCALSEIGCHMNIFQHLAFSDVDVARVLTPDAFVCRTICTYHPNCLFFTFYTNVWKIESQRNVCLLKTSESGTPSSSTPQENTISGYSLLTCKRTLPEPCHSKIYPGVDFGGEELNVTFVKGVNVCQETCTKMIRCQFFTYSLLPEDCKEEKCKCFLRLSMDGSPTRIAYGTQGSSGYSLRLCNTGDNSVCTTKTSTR
All dilutions were prepared in an assay buffer comprising 50 mM Tris-HCl pH 7.2, 150 mM NaCl, and 0.01% Triton X-100.
The ten solutions of the test compounds, prepared by serial dilution, were further diluted 50-fold in the assay buffer.
Human plasma is thawed on ice and centrifuged for 15 min at 4° C. to remove platelets. A 1 mM stock solution of ellagic acid is diluted to 8 μM and mixed with human plasma, after removing platelets, at a ratio of 1:0.8.
A 22.5 μL volume of the final mixture of human plasma and ellagic acid was added to a 96-well microwell plate and the plate was incubated for 15 min at 37° C.
The CINH inhibitor at various concentrations, prepared by serial dilutions as described above, were added to the inhibitor control wells. […] Each CINH concentration is tested in duplicates.
The test compounds at various concentrations, also prepared by serial dilutions as described above, are added to the test wells. […] Each test compound concentration was tested in duplicates.
In addition to the inhibitor control and test wells, the 96 well assay plate includes positive control wells which contained the mixture of human plasma and ellagic acid without C1NH inhibitor or test compounds, and background wells which contained neither the mixture of human plasma and ellagic acid nor the test compounds. The total volume of liquid in positive control and background wells was brought up to 35 μL, using the assay buffer.
The assay plate containing C1NH inhibitors and test compounds mixed with human plasma and ellagic acid and appropriate controls was incubated at 37° C. for 5 min. […] The reagents were mixed well by shaking the plate gently for 30 sec.
The enzyme reaction was quantified by immediate kinetic reading of the assay plate using excitation/emission wavelengths of 330 nm/440 nm respectively. Fluorescence intensity was recorded for 60 min, using a time interval of 43 sec.
The inhibition activity of the test compounds were evaluated using the EC50 values, calculated according to the dose-response curve of the test compounds, fitted using the “log(inhibitor)−response (variable slope)” equation in GraphPadPrism software (GraphPad Software, Inc.).
The percentage inhibition was calculated using the following equation:
[formula] where, Mean (BG) is the average value of the fluorescence intensity of the background wells and Mean (PC) is the average value of the fluorescence intensity of the positive control wells.
Table 4 provides the EC50 values of various compounds disclosed herein.

Chain of human plasma kallikrein (P03952 391-638): as the sequence (P03952 391-638) above
Chain of human plasma kallikrein (P03952 20-390 partner): as the sequence (P03952 20-390 partner) above

A word on the IC50: it is the concentration that gives 50% inhibition. The term EC50 denotes the concentration giving half of the maximal effect. A higher EC50 goes with a less potent agent. Take `Cc1cc(N)nc(C)c1CNC(=O)c1ccnc(Cc2ccc3ncc(C(F)(F)F)cc3c2)c1` [Example 228, N-((6-amino-2,4-dimethylpyridin-3-yl)methyl)-2-((3-(trifluoromethyl)quinolin-6-yl)methyl)isonicotinamide]: the IC50 on human plasma kallikrein was less than 100 nM. The EC50 in assay [1] was less than 100 nM.
For `Cc1nc(N)ccc1CNC(=O)c1ccnc(Cc2ccc3ncc(C(F)(F)F)cc3c2)c1` [Example 229, N-((6-amino-2-methylpyridin-3-yl)methyl)-2-((3-(trifluoromethyl)quinolin-6-yl)methyl)isonicotinamide], the IC50 on human plasma kallikrein was less than 100 nM. This compound came in with an EC50 in assay [1] of less than 100 nM.
With `O=C(NCc1cc2c(Cl)c[nH]c2cc1F)c1ccnc(Cc2ccc3ncc(C(F)(F)F)cc3c2)c1` [Example 230, N-((3-chloro-6-fluoro-1H-indol-5-yl)methyl)-2-((3-(trifluoromethyl)quinolin-6-yl)methyl)isonicotinamide], the IC50 at human plasma kallikrein was less than 100 nM. This compound also registered an EC50 in assay [1] of 100 to 1000 nM.
On to `O=C(NCc1cnc2[nH]cc(Cl)c2c1)c1ccnc(Cc2ccc3ncc(C(F)(F)F)cc3c2)c1` [Example 231, N-((3-chloro-1H-pyrrolo[2,3-b]pyridin-5-yl)methyl)-2-((3-(trifluoromethyl)quinolin-6-yl)methyl)isonicotinamide], for which the IC50 on human plasma kallikrein is less than 100 nM. The compound also yielded an EC50 in assay [1] of 100 to 1000 nM.
As to `Nc1nccc2cc(CNC(=O)c3ccnc(Cc4ccc5ncc(C(F)(F)F)cc5c4)c3)ccc12` [Example 232, N-((1-aminoisoquinolin-6-yl)methyl)-2-((3-(trifluoromethyl)quinolin-6-yl)methyl)isonicotinamide], the IC50 at human plasma kallikrein is less than 100 nM. Moreover, the EC50 in assay [1] was less than 100 nM.
In the case of `O=C(NCc1ccc2[nH]cc(Cl)c2c1F)c1ccnc(Cc2ccc3ncc(C(F)(F)F)cc3c2)c1` [Example 234, N-((3-chloro-4-fluoro-1H-indol-5-yl)methyl)-2-((3-(trifluoromethyl)quinolin-6-yl)methyl)isonicotinamide], the concentration for half-maximal inhibition (IC50) at human plasma kallikrein is less than 100 nM. Moreover, the EC50 in assay [1] lay within 100 to 1000 nM.
In the same order, the values of `Cc1cc(N)nc(C)c1CNC(=O)c1ccnc(Cc2cc(S(N)(=O)=O)c3ncc(Cl)cc3c2)c1` [Example 235, N-((6-amino-2,4-dimethylpyridin-3-yl)methyl)-2-((3-chloro-8-sulfamoylquinolin-6-yl)methyl)isonicotinamide] are less than 100 nM and less than 100 nM.
Turning to `Cc1nc(N)ccc1CNC(=O)c1ccnc(Cc2cc(S(N)(=O)=O)c3ncc(Cl)cc3c2)c1` [Example 236], the IC50 on human plasma kallikrein was less than 100 nM. The compound further came in with an EC50 in assay [1] of less than 100 nM.
As for `Cc1cc(N)nc(C)c1CNC(=O)c1ccnc(Cc2ccc3nc(C)c(Cl)cc3c2)c1` [Example 238, N-((6-amino-2,4-dimethylpyridin-3-yl)methyl)-2-((3-chloro-2-methylquinolin-6-yl)methyl)isonicotinamide], the IC50 on human plasma kallikrein is less than 100 nM. The compound further came in with an EC50 in assay [1] of less than 100 nM.
Turning to `Cc1nc2ccc(Cc3cc(C(=O)NCc4ccc(N)nc4C)ccn3)cc2cc1Cl` [Example 239, N-((6-amino-2-methylpyridin-3-yl)methyl)-2-((3-chloro-2-methylquinolin-6-yl)methyl)isonicotinamide], the IC50 at human plasma kallikrein was less than 100 nM. In assay [1], this compound had an EC50 of 100 to 1000 nM.
Turning to `Cc1cc(N)nc(C)c1CNC(=O)c1ccnc(Cc2cc(CN)c3ncc(Cl)cc3c2)c1` [Example 241, N-((6-amino-2,4-dimethylpyridin-3-yl)methyl)-2-((8-(aminomethyl)-3-chloroquinolin-6-yl)methyl)isonicotinamide], the IC50 at human plasma kallikrein is less than 100 nM. The EC50 in assay [1] is less than 100 nM.
For `Cc1cc(N)nc(C)c1CNC(=O)c1ccnc(Cc2ccc3ncc(C4CC4)cc3c2)c1` [Example 243, N-((6-amino-2,4-dimethylpyridin-3-yl)methyl)-2-((3-cyclopropylquinolin-6-yl)methyl)isonicotinamide], the IC50 at human plasma kallikrein is less than 100 nM. In assay [1], this compound displayed an EC50 of less than 100 nM.
With `O=C(NCc1cc2c(Cl)c[nH]c2cc1F)c1ccnc(Cc2ccc3ncc(C4CC4)cc3c2)c1` [Example 245, N-((3-chloro-6-fluoro-1H-indol-5-yl)methyl)-2-((3-cyclopropylquinolin-6-yl)methyl)isonicotinamide], the IC50 at human plasma kallikrein was less than 100 nM. Besides, the EC50 in assay [1] lay in the range of 100 to 1000 nM.
In the same order, the values of `O=C(NCc1cnc2[nH]cc(Cl)c2c1)c1ccnc(Cc2ccc3ncc(C4CC4)cc3c2)c1` [Example 246, N-((3-chloro-1H-pyrrolo[2,3-b]pyridin-5-yl)methyl)-2-((3-cyclopropylquinolin-6-yl)methyl)isonicotinamide] are less than 100 nM and 100 to 1000 nM.
In the same order, the values of `Nc1nccc2cc(CNC(=O)c3ccnc(Cc4ccc5ncc(C6CC6)cc5c4)c3)ccc12` [Example 247, N-((1-aminoisoquinolin-6-yl)methyl)-2-((3-cyclopropylquinolin-6-yl)methyl)isonicotinamide] are less than 100 nM and less than 100 nM.
As to `O=C(NCc1ccc2[nH]cc(Cl)c2c1F)c1ccnc(Cc2ccc3ncc(C4CC4)cc3c2)c1` [Example 248, N-((3-chloro-4-fluoro-1H-indol-5-yl)methyl)-2-((3-cyclopropylquinolin-6-yl)methyl)isonicotinamide], the IC50 at human plasma kallikrein was less than 100 nM. In assay [1], the EC50 lay in the range of 100 to 1000 nM.
For the compound `O=C(NCc1n[nH]c2ccc(Cl)cc12)c1ccnc(Cc2ccc3ncc(C4CC4)cc3c2)c1` [Example 249, N-((5-chloro-1H-indazol-3-yl)methyl)-2-((3-cyclopropylquinolin-6-yl)methyl)isonicotinamide], the IC50 at human plasma kallikrein was less than 100 nM. The compound also gave an EC50 in assay [1] of 100 to 1000 nM.
In the same order, the values of `Cc1nc(N)ccc1CNC(=O)c1ccnc(Cc2cc(CN)c3ncc(Cl)cc3c2)c1` [Example 253, N-((6-amino-2-methylpyridin-3-yl)methyl)-2-((8-(aminomethyl)-3-chloroquinolin-6-yl)methyl)isonicotinamide] are less than 100 nM and less than 100 nM.
Turning to `Cc1cc(N)nc(C)c1CNC(=O)c1ccnc(Cc2ccc3ncc(C(C)C)cc3c2)c1` [Example 254, N-((6-amino-2,4-dimethylpyridin-3-yl)methyl)-2-((3-isopropylquinolin-6-yl)methyl)isonicotinamide], the IC50 at human plasma kallikrein was less than 100 nM. Further, in assay [1], the EC50 is less than 100 nM.
For the compound `CCCc1cnc2ccc(Cc3cc(C(=O)NCc4c(C)cc(N)nc4C)ccn3)cc2c1` [Example 255, N-((6-amino-2,4-dimethylpyridin-3-yl)methyl)-2-((3-propylquinolin-6-yl)methyl)isonicotinamide], the IC50 on human plasma kallikrein is less than 100 nM. In assay [1], this compound showed an EC50 of less than 100 nM.
As for `COc1cnc2ccc(Cc3cc(C(=O)NCc4c(C)cc(N)nc4C)ccn3)cc2c1` [Example 264, N-((6-amino-2,4-dimethylpyridin-3-yl)methyl)-2-((3-methoxyquinolin-6-yl)methyl)isonicotinamide], the IC50 on human plasma kallikrein was less than 100 nM. This compound registered an EC50 in assay [1] of less than 100 nM.
On to `Cc1cc(N)nc(C)c1CNC(=O)c1ccnc(Cc2cc(-c3nnn[nH]3)c3ncc(Cl)cc3c2)c1` [Example 272, N-((6-amino-2,4-dimethylpyridin-3-yl)methyl)-2-((3-chloro-8-(1H-tetrazol-5-yl)quinolin-6-yl)methyl)isonicotinamide], for which the IC50 at human plasma kallikrein was less than 100 nM. Moreover, in assay [1], the EC50 was 100 to 1000 nM.
For `Cc1cc(N)nc(C)c1CNC(=O)c1ccnc(C(O)c2ccc3ncc(Cl)cc3c2)c1` (centres unmarked) [Example 275, N-((6-amino-2,4-dimethylpyridin-3-yl)methyl)-2-((3-chloroquinolin-6-yl)(hydroxy)methyl)isonicotinamide], at human plasma kallikrein, the IC50 is less than 100 nM. Further, the EC50 in assay [1] lay in the range of 100 to 1000 nM.
In the same order, the values of `Cc1cc(N)nc(C)c1CNC(=O)c1ccnc(C(N)c2ccc3ncc(Cl)cc3c2)c1` (centres unmarked) [Example 276, 2-[Amino-(3-chloro-quinolin-6-yl)-methyl]-N-(6-amino-2,4-dimethyl-pyridin-3-ylmethyl)-isonicotinamide] are less than 100 nM and 100 to 1000 nM.
For `Cc1cc(N)nc(C)c1CNC(=O)c1ccnc(C(C)(O)c2ccc3ncc(Cl)cc3c2)c1` (centres unmarked) [Example 277, N-((6-amino-2,4-dimethylpyridin-3-yl)methyl)-2-(1-(3-chloroquinolin-6-yl)-1-hydroxyethyl)isonicotinamide], at human plasma kallikrein, the IC50 is 100 to 1000 nM. Further, the EC50 in assay [1] lay within 100 to 1000 nM.
